# Literature values, collected in patent US6319912A, “Cyclic regimens using 2,1-benzisothiazoline 2,2-dioxides” (American Home Products Corporation, priority 2000, dated 2001).
# Tested on: hormone dependent prostate cancer
# Details: literature, Michna et al 1995
row,SMILES,effectiveness in a model of hormone dependent prostate cancer
1,CC#C[C@]1(O)CC[C@H]2[C@@H]3CCC4=CC(=O)CCC4=C3[C@@H](c3ccc(N(C)C)cc3)C[C@@]21C [mifepristone],effective
2,CN(C)c1ccc([C@H]2C[C@]3(C)[C@@H](CC[C@]3(O)CCCO)[C@@H]3CCC4=CC(=O)CCC4=C32)cc1 [onapristone],effective
